Experimental data as given in ChEMBL document CHEMBL4665826, “Design, synthesis and biological evaluation of novel heptamethine cyanine dye-erlotinib conjugates as antitumor agents” (Bioorg Med Chem Lett, 2020).

Columns and labels:
A549 [1] = assay: Antiproliferative activity against human A549 cells assessed as reduction in cell growth by MTT assay; assay type: functional, cell-based
NCI-H460 = assay: Antiproliferative activity against human NCI-H460 cells assessed as reduction in cell growth by MTT assay; assay type: functional, cell-based
NCI-H1299 = assay: Antiproliferative activity against human NCI-H1299 cells assessed as reduction in cell growth by MTT assay; assay type: functional, cell-based
MDA-MB-231 = assay: Antiproliferative activity against human MDA-MB-231 cells assessed as reduction in cell growth by MTT assay; assay type: functional, cell-based
[2] = biological target: T1, Epidermal growth factor receptor (Homo sapiens, UniProt P00533); assay: Inhibition of EGFR in human A549 cells measured after 30 hrs by ELISA; assay type: cell-based
MCF-10A = assay: Cytotoxicity against human MCF-10A cells assessed as reduction in cell growth by MTT assay; assay type: cell-based
A549 [3] = assay: Potency index, ratio of erlotinib IC50 to test compound IC50 for antiproliferative activity against human A549 cells assessed as reduction in cell growth by MTT assay; assay type: functional
[4] = biological target: T1, Epidermal growth factor receptor; assay: Potency index, ratio of erlotinib IC50 to test compound IC50 for EGFR in human A549 cells measured after 30 hrs by ELISA; assay type: cell-based

T1 sequence (P00533 whole entry): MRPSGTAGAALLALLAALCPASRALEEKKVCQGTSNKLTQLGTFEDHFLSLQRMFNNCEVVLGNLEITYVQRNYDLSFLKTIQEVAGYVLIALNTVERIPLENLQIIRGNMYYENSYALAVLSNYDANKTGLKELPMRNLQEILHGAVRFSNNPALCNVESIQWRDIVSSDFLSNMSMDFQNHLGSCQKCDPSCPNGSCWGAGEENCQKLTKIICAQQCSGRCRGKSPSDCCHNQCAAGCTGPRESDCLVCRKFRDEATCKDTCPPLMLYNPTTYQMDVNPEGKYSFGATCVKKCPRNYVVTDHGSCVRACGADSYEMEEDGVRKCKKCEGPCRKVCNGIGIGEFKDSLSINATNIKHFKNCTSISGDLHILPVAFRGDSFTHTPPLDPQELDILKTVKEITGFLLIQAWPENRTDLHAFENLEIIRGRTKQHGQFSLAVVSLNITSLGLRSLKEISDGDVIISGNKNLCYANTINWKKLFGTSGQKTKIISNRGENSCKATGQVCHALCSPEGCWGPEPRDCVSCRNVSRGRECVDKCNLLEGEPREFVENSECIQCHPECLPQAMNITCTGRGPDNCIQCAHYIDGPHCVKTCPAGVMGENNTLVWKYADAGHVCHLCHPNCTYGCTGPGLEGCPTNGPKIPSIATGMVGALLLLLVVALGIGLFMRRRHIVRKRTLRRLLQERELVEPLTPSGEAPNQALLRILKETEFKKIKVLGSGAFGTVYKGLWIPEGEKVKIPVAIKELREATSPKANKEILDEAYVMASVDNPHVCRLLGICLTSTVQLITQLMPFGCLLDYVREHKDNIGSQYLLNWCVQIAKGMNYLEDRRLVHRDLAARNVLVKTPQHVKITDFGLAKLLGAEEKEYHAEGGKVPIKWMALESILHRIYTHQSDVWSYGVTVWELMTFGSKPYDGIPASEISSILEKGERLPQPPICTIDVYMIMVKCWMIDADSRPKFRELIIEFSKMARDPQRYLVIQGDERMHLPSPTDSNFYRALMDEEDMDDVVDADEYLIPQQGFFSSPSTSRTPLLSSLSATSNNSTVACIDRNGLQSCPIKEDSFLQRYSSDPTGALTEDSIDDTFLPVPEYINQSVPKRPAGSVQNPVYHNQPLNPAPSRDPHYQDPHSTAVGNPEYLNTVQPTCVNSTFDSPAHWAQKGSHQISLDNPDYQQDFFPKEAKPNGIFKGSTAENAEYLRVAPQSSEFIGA

| IC50 (A549 [1]) [nM] | IC50 (NCI-H460) [nM] | IC50 (NCI-H1299) [nM] | IC50 (MDA-MB-231) [nM] | IC50 [2] [nM] | Ratio IC50 [4] | SMILES | IC50 (MCF-10A) [nM] | Ratio IC50 (A549 [3]) |
| --- | --- | --- | --- | --- | --- | --- | --- | --- |
| 3940 | 2470 | 680 | < 125 | – | – | C#Cc1cccc(Nc2ncnc3cc(OCCOC)c(OCCOC(=O)CCCCC[N+]4=C(/C=C/C=C/C=C/C=C5/N(CCCC)c6ccccc6C5(C)C)C(C)(C)c5cc(OC)ccc54)cc23)c1 | – | – |
| 2070 | 2120 | 1740 | 313 | – | – | C#Cc1cccc(Nc2ncnc3cc(OCCOC)c(OCCOC(=O)CCCCC[N+]4=C(/C=C/C=C/C=C/C=C5/N(CCCC)c6ccccc6C5(C)C)C(C)(C)c5cc(C)ccc54)cc23)c1 | – | – |
| 1960 | 2700 | 2210 | 4230 | – | – | C#Cc1cccc(Nc2ncnc3cc(OCCOC)c(OCCOC(=O)CCCCC[N+]4=C(/C=C/C5=C(Cl)C(=C/C=C6/N(CCCCCC(=O)O)c7ccc(OC)cc7C6(C)C)/CCC5)C(C)(C)c5cc(OC)ccc54)cc23)c1 | – | – |
| 2590 | 5120 | 14900 | 3300 | – | – | C#Cc1cccc(Nc2ncnc3cc(OCCOC)c(OCCOC(=O)CCCCC[N+]4=C(/C=C/C=C/C=C/C=C5/N(CCCCCC(=O)O)c6ccc(OC)cc6C5(C)C)C(C)(C)c5cc(OC)ccc54)cc23)c1 | – | – |
| 7330 | 13700 | 17600 | 609 | – | – | C#Cc1cccc(Nc2ncnc3cc(OCCOC)c(OCCOC(=O)CCCCC[N+]4=C(/C=C/C5=C(Cl)C(=C/C=C6/N(CCCCCC(=O)O)c7ccc(Br)cc7C6(C)C)/CCC5)C(C)(C)c5cc(Br)ccc54)cc23)c1 | – | – |
| 230 | 813 | 541 | 356 | 205 | – | C#Cc1cccc(Nc2ncnc3cc(OCCOC)c(OCCOC(=O)CCCCC[N+]4=C(/C=C/C=C/C=C/C=C5/N(CCCC)c6ccccc6C5(C)C)C(C)(C)c5cc(C(F)(F)F)ccc54)cc23)c1 | – | – |
| 2100 | 5650 | 4150 | 6210 | – | – | C#Cc1cccc(Nc2ncnc3cc(OCCOC)c(OCCOC(=O)CCCCC[N+]4=C(/C=C/C=C/C=C/C=C5/N(CCCCCC(=O)O)c6ccc(C)cc6C5(C)C)C(C)(C)c5cc(C)ccc54)cc23)c1 | – | – |
| 2080 | 855 | 246 | 833 | – | – | C#Cc1cccc(Nc2ncnc3cc(OCCOC)c(OCCOC(=O)CCCCC[N+]4=C(/C=C/C=C/C=C/C=C5/N(CCCC)c6ccc(OC)cc6C5(C)C)C(C)(C)c5cc(Br)ccc54)cc23)c1 | – | – |
| 388 | 549 | 378 | 306 | – | – | C#Cc1cccc(Nc2ncnc3cc(OCCOC)c(OCCOC(=O)CCCCC[N+]4=C(/C=C/C=C/C=C/C=C5/N(CCCC)c6ccc(OC)cc6C5(C)C)C(C)(C)c5ccccc54)cc23)c1 | – | – |
| 9040 | 15200 | 6960 | 4310 | – | – | C#Cc1cccc(Nc2ncnc3cc(OCCOC)c(OCCOC(=O)CCCCC[N+]4=C(/C=C/C5=C(Cl)C(=C/C=C6/N(CCCCCC(=O)O)c7ccccc7C6(C)C)/CCC5)C(C)(C)c5ccccc54)cc23)c1 | – | – |
| 678 | 827 | 1350 | 531 | – | – | C#Cc1cccc(Nc2ncnc3cc(OCCOC)c(OCCOC(=O)CCCCC[N+]4=C(/C=C/C=C/C=C/C=C5/N(CCCC)c6ccc(OC)cc6C5(C)C)C(C)(C)c5cc(C)ccc54)cc23)c1 | – | – |
| 2380 | 816 | 1550 | 3360 | – | – | C#Cc1cccc(Nc2ncnc3cc(OCCOC)c(OCCOC(=O)CCCCC[N+]4=C(/C=C/C5=C(Cl)C(=C/C=C6/N(CCCCCC(=O)O)c7ccc(C)cc7C6(C)C)/CCC5)C(C)(C)c5cc(C)ccc54)cc23)c1 | – | – |
| 579 | 655 | 693 | < 125 | – | – | C#Cc1cccc(Nc2ncnc3cc(OCCOC)c(OCCOC(=O)CCCCC[N+]4=C(/C=C/C=C/C=C/C=C5/N(CCCC)c6ccccc6C5(C)C)C(C)(C)c5cc(Br)ccc54)cc23)c1 | – | – |
| < 1 | < 1 | 5 | < 25 | – | – | CC(=O)O[C@H]1C(=O)[C@@]2(C)[C@H]([C@H](OC(=O)c3ccccc3)[C@]3(O)C[C@H](OC(=O)[C@H](O)[C@@H](NC(=O)c4ccccc4)c4ccccc4)C(C)=C1C3(C)C)[C@]1(OC(C)=O)CO[C@@H]1C[C@@H]2O [PACLITAXEL] | – | – |
| 455 | 217 | 110 | < 125 | – | – | C#Cc1cccc(Nc2ncnc3cc(OCCOC)c(OCCOC(=O)CCCCC[N+]4=C(/C=C/C=C/C=C/C=C5/N(CCCC)c6ccc(OC)cc6C5(C)C)C(C)(C)c5cc(OC)ccc54)cc23)c1 | – | – |
| 1130 | 7250 | 5140 | 1620 | – | – | C#Cc1cccc(Nc2ncnc3cc(OCCOC)c(OCCOC(=O)CCCCC[N+]4=C(/C=C/C=C/C=C/C=C5/N(CCCCCC(=O)O)c6ccccc6C5(C)C)C(C)(C)c5ccccc54)cc23)c1 | – | – |
| 177 | 301 | 79 | 311 | 124 | 14 | C#Cc1cccc(Nc2ncnc3cc(OCCOC)c(OCCOC(=O)CCCCC[N+]4=C(/C=C/C=C/C=C/C=C5/N(CCCC)c6ccc(OC)cc6C5(C)C)C(C)(C)c5cc(C(F)(F)F)ccc54)cc23)c1.[Br-] | 38600 | 14 |
| 631 | 570 | 2000 | < 125 | – | – | C#Cc1cccc(Nc2ncnc3cc(OCCOC)c(OCCOC(=O)CCCCC[N+]4=C(/C=C/C=C/C=C/C=C5/N(CCCC)c6ccccc6C5(C)C)C(C)(C)c5ccccc54)cc23)c1 | 33200 | – |
